According to patent US7847065B2, “CXADRL1 polypeptides relating to human cancers” (Oncotherapy Science, Inc., priority 2002, dated 2010):
Read-outs that look alike come from different tables or passages of the source. Ends that are not written are not given here. Peptide text beside a SMILES is read from it.

Key:
T2 cells (HLA-A*0201) [1] = system: T2 cells (HLA-A*0201)
Protocol: (§3) Target cells were labeled with 100 μCi of Na2^51CrO4 (Perkin Elmer Life Sciences) for 1 h at 37° C. in a CO2 incubator. When peptide-pulsed targets were used, target cells were incubated with the addition of 20 μg/ml of the peptide for 16 h at 37° C. before the labeling with Na2^51CrO4. Target cells were rinsed and mixed with effectors at a final volume of 0.2 ml in round-bottom microtiter plates. The plates were centrifuged (4 minutes at 800×g) to increase cell-to-cell contact and placed in a CO2 incubator at 37° C. After 4 h of incubation, 0.1 ml of the supernatant was collected from each well and the radioactivity was determined with a gamma counter. In case of evaluating cytotoxicity against target cells that endogenously express RNF43, CXADRL1, or GCUD1, the cytolytic activity was tested in the presence of a 30-fold excess of unlabeled K562 cells to reduce any non-specific lysis due to NK-like effectors. […] The MHC restriction was examined by blocking assay, measuring the inhibition of the cytotoxicity with anti-HLA-class I (W6/32) antibody and anti-HLA-class II antibody, or anti-CD4 antibody and anti-CD8 antibody (DAKO).
(§4) The percentage of specific cytotoxicity was determined by calculating the percentage of specific ^51Cr-release by the following formula: {(cpm of the test sample release−cpm of the spontaneous release)/(cpm of the maximum release−cpm of the spontaneous release)}×100. Spontaneous release was determined by incubating the target cells alone in the absence of effectors, and the maximum release was obtained by incubating the targets with 1N HCl. All determinants were done in duplicate, and the standard errors of the means were consistently below 10% of the value of the mean.

SNU475 = assay: Cytotoxicity of CTLs against tumor cell line SNU475; assay type: cell-based, human; conditions: SNU475 expresses CXADRL1, GCUD1 and HLA-A*0201
Protocol: as §3, §4

SNU475 cells = assay: Blocking assay with antibodies, target SNU475; assay type: cell-based, human
Protocol: as §3

MKN45 = assay: Cytotoxicity of CTL clone against tumor cell line MKN45; assay type: cell-based, human; conditions: expresses GCUD1 but not HLA-A*0201
Protocol: (§5) Target cells were labeled with 100 μCi of Na2^51CrO4 (Perkin Elmer Life Sciences) for 1 h at 37° C. in a CO2 incubator. When peptide-pulsed targets were used, target cells were incubated with the addition of 20 μg/ml of the peptide for 16 h at 37° C. before the labeling with Na2^51CrO4. Target cells were rinsed and mixed with effectors at a final volume of 0.2 ml in round-bottom microtiter plates. The plates were centrifuged (4 minutes at 800×g) to increase cell-to-cell contact and placed in a CO2 incubator at 37° C. After 4 h of incubation, 0.1 ml of the supernatant was collected from each well and the radioactivity was determined with a gamma counter. In case of evaluating cytotoxicity against target cells that endogenously express RNF43, CXADRL1, or GCUD1, the cytolytic activity was tested in the presence of a 30-fold excess of unlabeled K562 cells to reduce any non-specific lysis due to NK-like effectors. […]
(§6) The percentage of specific cytotoxicity was determined by calculating the percentage of specific ^51Cr-release by the following formula: {(cpm of the test sample release−cpm of the spontaneous release)/(cpm of the maximum release−cpm of the spontaneous release)}×100. Spontaneous release was determined by incubating the target cells alone in the absence of effectors, and the maximum release was obtained by incubating the targets with 1N HCl. […]

T2 cells (HLA-A*0201) [2] = assay: 51Cr-release cytotoxicity assay of peptide-induced CTLs on T2 cells; conditions: for Cytotoxic activity of peptide-induced CTL line/clone on non-pulsed target: T2 not pulsed with any peptide; for Cytotoxic activity of peptide-induced CTL line/clone on peptide-pulsed target: T2 pulsed with the peptide
Protocol: as §3, §4

MKN-28 cells = assay: MTT assay after transfection of S-oligonucleotides, MKN-28; assay type: cell-based, human; conditions: six days after transfection
Protocol: (§1) Cells plated onto 10-cm dishes (2×10^5 cells/dish) were transfected either with plasmid, or synthetic S-oligonucleotides of CXADRL1, GCUD1, or RNF43 using LIPOFECTIN Reagent (GIBCO BRL). Then the cells were cultured with the addition of an appropriate concentration of geneticin for six to twelve days. The cells were then fixed with 100% methanol and stained by Giemsa solution. Sequences of the S-oligonucleotides were as follows:
(§2) Cells plated at a density of 5×10^5 cells/100 mm dish were transfected in triplicate with sense or antisense S-oligonucleotides designated to suppress the expression of CXADRL1, GCUD1, or RNF43. […] Subsequently, the cells were lysed by the addition of 1 ml of 0.01 N HCl/10% SDS and the absorbance of lysates was measured with ELISA plate reader at a test wavelength of 570 nm (reference, 630 nm). The cell viability was represented by the absorbance compared to that of control cells.

MKN74 = assay: Cytotoxicity of CTL clone against tumor cell line MKN74; assay type: cell-based, human; conditions: expresses CXADRL1 but not HLA-A*0201
Protocol: as §5, §6

SNU-C4 [3] = assay: Cytotoxicity of CTL clone against tumor cell line SNU-C4; conditions: HLA-A*0201 but not CXADRL1; RNF43 but little HLA-A24
Protocol: as §5, §6

SNU-C4 [4] = system: SNU-C4
Protocol: as §5, §6

RNF43 = assay: Suppression of RNF43 expression by antisense S-oligonucleotide (semi-quantitative RT-PCR), LoVo cells; assay type: cell-based, human; conditions: 12 hours after transfection
Protocol: Total RNA was extracted with Qiagen RNeasy kit (Qiagen) or Trizol reagent (Life Technologies) according to the manufacturers' protocols. Ten-microgram aliquots of total RNA were reversely transcribed for single-stranded cDNAs using poly dT12-18 primer (Amersham Pharmacia Biotech) with Superscript II reverse transcriptase (Life Technologies). Each single-stranded cDNA preparation was diluted for subsequent PCR amplification by standard RT-PCR experiments carried out in 20 μl volumes of PCR buffer (TaKaRa). Amplification was conducted under following conditions: denaturing for 4 min at 94° C., followed by 20 (for GAPDH), 35 (for CXADRL1), 30 (for GCUD1), 30 (for RNF43) cycles of 94° C. for 30 s, 56° C. for 30 s, and 72° C. for 45 s, in GeneAmp PCR system 9700 (Perkin-Elmer, Foster City, Calif.). Primer sequences were; for GAPDH: forward, 5′-[…] (SEQ ID NO: 7) and reverse, 5′-[…] (SEQ ID NO: 8); for CXADRL1: forward, 5′-[…] (SEQ ID NO: 9) and reverse: 5′-TATAAACCAG CTGAGTCCAGAG (SEQ ID NO: 10); for GCUD1 forward: 5′-[…] (SEQ ID NO: 11) reverse: 5′-[…] (SEQ ID NO: 12), for RNF43 forward; 5′-[…]-3′ (SEQ ID NO: 13) and reverse; 5′-[…]-3′ (SEQ ID NO: 14).
Cells plated onto 10-cm dishes (2×10^5 cells/dish) were transfected either with plasmid, or synthetic S-oligonucleotides of CXADRL1, GCUD1, or RNF43 using LIPOFECTIN Reagent (GIBCO BRL). […]

LoVo colon cancer cells = assay: MTT assay after transfection of S-oligonucleotides, LoVo; assay type: cell-based, human; conditions: six days after transfection
Protocol: as §1, §2

[5] = system: MKN-1 gastric cancer cells; assay: MTT assay after transfection of S-oligonucleotides, MKN-1; assay type: cell-based, human; conditions: MKN-1 cells, six days after transfection
Protocol: as §1, §2

Protocol for DLD-1: as §5, §6
Protocol for HCT116: as §5, §6
Protocol for HT29: as §3, §4
Protocol for TISI cells (HLA-A24/24): as §3, §4
Protocol for WiDR cells: as §3

ALWPWLLMAT [RNF43-11, ALWPWLLMAT]
Cytotoxic activity of peptide-induced CTL line/clone on peptide-pulsed target (T2 cells (HLA-A*0201) [1]): higher cytotoxic activity | Cytotoxic activity of CTL clone on HT29 (HT29): no significant cytotoxic activity | Cytotoxic activity of CTL clone on DLD-1 (DLD-1): high cytotoxic activity

ALSSGLYQV [CXADRL1-9V, ALSSGLYQV]
Cytotoxic activity of peptide-induced CTLs against SNU475 (SNU475): killed

KMDAEHPEL [GCUD1-196, KMDAEHPEL]
Cytotoxicity of CTL clone against SNU475 with anti-HLA-Class I antibody and anti-CD8 antibody (SNU475 cells): significantly inhibited | Cytotoxic activity of peptide-induced CTLs against SNU475 (SNU475): potent cytotoxic activity | Cytotoxic activity of CTL clone against MKN45 (MKN45): not against | Cytotoxic activity of peptide-induced CTL line/clone on non-pulsed target (T2 cells (HLA-A*0201) [2]): without showing any cytotoxic activity | Cytotoxic activity of peptide-induced CTL line/clone on peptide-pulsed target (T2 cells (HLA-A*0201) [2]): very potent cytotoxic activity

5′-CAGCCATCCTGAAAAG-3′ (phosphorothioate, further chemistry not given here) [GCUD1-AS5, antisense S-oligonucleotide]
Viable cells (MTT assay) compared with control S-oligonucleotides (MKN-28 cells): markedly fewer

5′-CGGCTTACCTCAACCT-3′ (phosphorothioate, further chemistry not given here) [GCUD1-AS8, antisense S-oligonucleotide]
Viable cells (MTT assay) compared with control S-oligonucleotides (MKN-28 cells): markedly fewer

ALSSGLYQC [CXADRL1-207, ALSSGLYQC]
Cytotoxicity of CTL clone against SNU475 with anti-HLA-Class I antibody and anti-CD8 antibody (SNU475 cells): significantly inhibited | Cytotoxic activity of peptide-induced CTLs against SNU475 (SNU475): potent cytotoxic activity | Cytotoxic activity of CTL clone against MKN74 (MKN74): not against | Cytotoxic activity of peptide-induced CTL line/clone on non-pulsed target (T2 cells (HLA-A*0201) [2]): without showing any cytotoxic activity | Cytotoxic activity of peptide-induced CTL line/clone on peptide-pulsed target (T2 cells (HLA-A*0201) [2]): very potent cytotoxic activity | Cytotoxic activity of CTL clone against SNU-C4 (SNU-C4 [3]): not against

NSQPVWLCL [RNF43-721, NSQPVWLCL]
Cytotoxicity of CTL clone on WiDR with anti-HLA-Class I, CD3, and CD8 antibodies (WiDR cells): significantly inhibited | Cytotoxic activity of CTL clone on HT29 (HT29): potent cytotoxic activity | Cytotoxic activity of CTL clone on WiDR (WiDR): potent cytotoxic activity | Cytotoxic activity of CTL clone against SNU-C4 (SNU-C4 [4]): did not show any cytotoxic activity | Cytotoxic activity of CTL clone on HCT116 (HCT116): did not show any cytotoxic activity | Cytotoxic activity of CTL clone on irrelevant peptide pulsed TISI (TISI cells (HLA-A24/24)): did not show any cytotoxic activity | Cytotoxicity of CTL lines (9mer) ×2 Pep(+) (TISI cells (HLA-A24/24)): 26% | Cytotoxicity of CTL lines (9mer) ×2 Pep(−) (TISI cells (HLA-A24/24)): 0% | Cytotoxicity of CTL lines (9mer) ×20 Pep(+) (TISI cells (HLA-A24/24)): 68% | Cytotoxicity of CTL lines (9mer) ×20 Pep(−) (TISI cells (HLA-A24/24)): 0%

KLMQSHPLYL [RNF43-81, KLMQSHPLYL]
Cytotoxicity(%) ×2 Pep(+) (T2 cells (HLA-A*0201) [1]): 6.3% | Cytotoxicity(%) ×2 Pep(−) (T2 cells (HLA-A*0201) [1]): 8.3% | Cytotoxicity(%) ×20 Pep(+) (T2 cells (HLA-A*0201) [1]): 18.0% | Cytotoxicity(%) ×20 Pep(−) (T2 cells (HLA-A*0201) [1]): 27.6% | Cytotoxic activity of peptide-induced CTL line/clone on peptide-pulsed target (TISI cells (HLA-A24/24)): modest cytotoxic activity | Cytotoxicity of CTL lines (10mer) ×2 Pep(+) (TISI cells (HLA-A24/24)): 2% | Cytotoxicity of CTL lines (10mer) ×2 Pep(−) (TISI cells (HLA-A24/24)): −3% | Cytotoxicity of CTL lines (10mer) ×20 Pep(+) (TISI cells (HLA-A24/24)): 10% | Cytotoxicity of CTL lines (10mer) ×20 Pep(−) (TISI cells (HLA-A24/24)): 5%

5′-ACCACTCATGCTACCA-3′ (phosphorothioate, further chemistry not given here) [RNF43-AS1, antisense S-oligonucleotide]
Expression of RNF43 compared to control S-oligonucleotides (RNF43-S1) (RNF43): significantly suppressed | Number of surviving cells compared with RNF43-S1 (LoVo colon cancer cells): significantly fewer

5′-TGCAACACCTACAGAA-3′ (phosphorothioate, further chemistry not given here) [CXADRL1-AS5, antisense S-oligonucleotide]
Viable cells (MTT assay) compared with control S-oligonucleotides [5]: markedly fewer

KMDAEHPEV [GCUD1-9V, KMDAEHPEV]
Cytotoxic activity of peptide-induced CTLs against SNU475 (SNU475): killed

CC(C)C[C@H](NC(=O)[C@@H](N)CS)C(=O)N[C@@H](Cc1c[nH]cn1)C(=O)N[C@@H](CCC(=O)O)C(=O)N[C@@H](Cc1ccccc1)C(=O)N[C@@H](Cc1c[nH]cn1)C(=O)N[C@@H](CCCNC(=N)N)C(=O)N[C@@H](CC(N)=O)C(=O)N[C@@H](CS)C(=O)N[C@H](C(=O)O)C(C)C [RNF43-290, CLHEFHRNCV] (H-CLHEFHRNCV-OH)
Cytotoxicity(%) ×2 Pep(+) (T2 cells (HLA-A*0201) [1]): 2.7% | Cytotoxicity(%) ×2 Pep(−) (T2 cells (HLA-A*0201) [1]): 3.7% | Cytotoxicity(%) ×20 Pep(+) (T2 cells (HLA-A*0201) [1]): 9.6% | Cytotoxicity(%) ×20 Pep(−) (T2 cells (HLA-A*0201) [1]): 9.7%

5′-CTACTCACCGTGCAGA-3′ (phosphorothioate, further chemistry not given here) [CXADRL1-AS4, antisense S-oligonucleotide]
Viable cells (MTT assay) compared with control S-oligonucleotides [5]: markedly fewer

ALWPWLLMA [RNF43-11, ALWPWLLMA]
Cytotoxic activity of CTL clone on HT29 (HT29): no significant cytotoxic activity | Cytotoxic activity of CTL clone on DLD-1 (DLD-1): high cytotoxic activity

LMQSHPLYL [RNF43-82, LMQSHPLYL]
Cytotoxicity(%) ×2 Pep(+) (T2 cells (HLA-A*0201) [1]): 0.0% | Cytotoxicity(%) ×2 Pep(−) (T2 cells (HLA-A*0201) [1]): −0.4% | Cytotoxicity(%) ×20 Pep(+) (T2 cells (HLA-A*0201) [1]): 1.7% | Cytotoxicity(%) ×20 Pep(−) (T2 cells (HLA-A*0201) [1]): 1.2%

FLTTASGVSV [GCUD1-272, FLTTASGVSV]
Cytotoxic activity of peptide-induced CTL line/clone on non-pulsed target (T2 cells (HLA-A*0201) [2]): without showing any cytotoxic activity | Cytotoxic activity of peptide-induced CTL line/clone on peptide-pulsed target (T2 cells (HLA-A*0201) [2]): very potent cytotoxic activity
